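Cultured in 96-well plates, cells were exposed to test compound for 48 hours across five concentrations. At the GI50, growth is halved.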 The source made the active and inactive calls. Cut-off read from the data, not from the text of the source: active = GI50 up to about 1.1 µM and inactive = higher.

This note sets out measurements from ChEMBL document CHEMBL1201862, “PubChem BioAssay data set” (2004).

What all share (test): DTP human tumour cell line panel, 48 h
Assay [1] deals with SF-268.
In assay [2] the test system is CAKI-1.
Assay [3] deals with HCT-116.
For assay [4], the system named is 786-0.
Assay [5] relates to Hs-578T.
Assay [6] relates to MOLT-4.
For assay [7], the system named is A549.
For assay [8], the system named is CCRF-CEM.
The test system of assay [9] is UACC-257.
For assay [10], the system named is OVCAR-8.
Assay [11] deals with MDA-MB-231.
Assay [12] relates to TK-10.
The subject of assay [13] is M14.
Assay [14] concerns UO-31.
Assay [15] deals with SF-295.
Assay [16] deals with COLO 205.
For assay [17], the system named is OVCAR-5.
Assay [18] deals with A498.
In assay [19] the test system is NCI-H460.
In assay [20] the test system is HOP-92.

A word on the GI50: it is the concentration that inhibits growth by half. For the compound `O=C(/C=C\c1ccc(-c2ccccc2)cc1)c1cccs1`, the GI50 is 22.5 µM (inactive) in assay [1]; 35.7 µM (inactive) in [2]; 27.4 µM (inactive) in assay [3]; 11.6 µM (inactive) in assay [4]; 9.59 µM (inactive) in assay [5]; 3.1 µM (inactive) in [6]. Besides, the GI50 in assay [7] is > 79.6 µM (inactive); in assay [8], 2.42 µM (inactive); in assay [9], > 100 µM (inactive); in assay [10], 6.44 µM (inactive); in assay [11], 48.5 µM (inactive); in assay [12], 46.2 µM (inactive). The GI50 in assay [13] is > 100 µM (inactive); in assay [14] it was 16.6 µM (inactive); in [15], 29.7 µM (inactive); in [16], > 39.2 µM (inactive); in assay [17], 45.2 µM (inactive); in assay [18], 8.67 µM (inactive). Moreover, the GI50 in assay [19] was 56.4 µM (inactive); in [20] it was > 69.2 µM (inactive).

For `CCc1nc(N)nc(N)c1-c1ccc(Cl)c(/N=C/N(C)C)c1`, the GI50 is 62.1 µM (inactive) in [1]; 53.8 µM (inactive) in assay [2]; 10.3 µM (inactive) in assay [3]; 22.8 µM (inactive) in [4]; > 100 µM (inactive) in assay [5]; 34.8 µM (inactive) in assay [6]. The GI50 in assay [7] was 15.3 µM (inactive); in assay [8], 30.3 µM (inactive); in assay [9], > 100 µM (inactive); in assay [10], 44.4 µM (inactive); in assay [11] it was 81.3 µM (inactive); in [12], > 100 µM (inactive). In addition, the GI50 in assay [13] was 52.5 µM (inactive); in assay [14], > 100 µM (inactive); in assay [15], 41.1 µM (inactive); in assay [16] it was 65 µM (inactive); in [17], > 100 µM (inactive); in assay [18], 86.9 µM (inactive). Also, the figures for the GI50 in assay [19] and in [20] were 5.22 µM (inactive) and > 90.4 µM (inactive), respectively.

With `CN(CCCNC(=O)c1nn(C)c2c1Cc1ccccc1-2)CCCNC(=O)c1nn(C)c2c1Cc1ccccc1-2`, the GI50 was 19.2 µM (inactive) in assay [1]; 18.7 µM (inactive) in assay [2]; 14.3 µM (inactive) in assay [3]; 10.7 µM (inactive) in assay [4]; 20.5 µM (inactive) in [5]; 4.73 µM (inactive) in assay [6]. For the same compound, the GI50 in [7] was 16.5 µM (inactive); in assay [8] it was 2.18 µM (inactive); in [9], 12.1 µM (inactive); in assay [10], 19.6 µM (inactive); in assay [11], 19.3 µM (inactive); in assay [12], 19.1 µM (inactive). In addition, the GI50 in [13] was 6.15 µM (inactive); in assay [14], 0.614 µM (active); in assay [15] it was 18.2 µM (inactive); in [16], 13.7 µM (inactive); in assay [17], 18.3 µM (inactive); in assay [18] it was 17 µM (inactive). Further, the GI50 in [19] is 18 µM (inactive); in assay [20] it was 15.6 µM (inactive).

Turning to `CCOC(=O)C(SCCO)C(C(=O)OCC)n1cnc2c(=O)[nH]c(NC(C)=O)nc21` (stereo not given), the GI50 in assay [1], in assay [2], in [3], in [4], in [5] and in assay [6] was > 100 µM (inactive) in each case. Further, the GI50 in assay [7], in assay [8], in assay [9], in [10], in assay [11] and in assay [12] was > 100 µM (inactive) in each case. The GI50 in assay [13], in [14], in assay [15], in assay [16], in [17] and in assay [18] was > 100 µM (inactive) throughout. The GI50 in [19] and in assay [20] was > 100 µM (inactive) each time.

In the case of `O=c1c(C(c2ccc3c(c2)Cc2ccccc2-3)c2c(O)oc3ccccc3c2=O)c(O)oc2ccccc12`, the GI50 is 23.9 µM (inactive) in [1]; 20.3 µM (inactive) in assay [2]; 35.6 µM (inactive) in assay [3]; 25.9 µM (inactive) in assay [4]; 25.6 µM (inactive) in assay [5]; 40.6 µM (inactive) in [6]. Further, the GI50 is 19.5 µM (inactive) in assay [7]; 40.4 µM (inactive) in assay [8]; 34.6 µM (inactive) in assay [9]; > 100 µM (inactive) in assay [10]; 28.2 µM (inactive) in assay [11]; 56.5 µM (inactive) in assay [12]. For the same compound, the GI50 is 20.5 µM (inactive) in [13]; 16.7 µM (inactive) in [14]; 25.2 µM (inactive) in assay [15]; 20.4 µM (inactive) in [16]; 23.7 µM (inactive) in [17]; 38.5 µM (inactive) in [18]. In addition, the results for the GI50 in assay [19] and in [20] were 25.9 µM (inactive) and 19.1 µM (inactive), respectively.

For the compound `Cc1ccc2c(/C=C/c3ccc(N(C)C)cc3)ccnc2c1C`, the GI50 was 30.1 µM (inactive) in assay [1]; 27.4 µM (inactive) in [2]; 25.2 µM (inactive) in assay [3]; 27.4 µM (inactive) in assay [4]; 43.2 µM (inactive) in assay [5]; 38.6 µM (inactive) in assay [6]. For the same compound, the GI50 in assay [7] is 49.8 µM (inactive); in [8] it was 32.9 µM (inactive); in [9], 26.8 µM (inactive); in assay [10], 24.7 µM (inactive); in assay [11] it was 16.6 µM (inactive); in [12], 16.2 µM (inactive). The GI50 is 51.4 µM (inactive) in assay [13]; 19.3 µM (inactive) in [14]; 22.4 µM (inactive) in [15]; 18.4 µM (inactive) in assay [16]; 64 µM (inactive) in assay [17]; > 100 µM (inactive) in assay [18]. Also, the results for the GI50 in assay [19] and in [20] were 25.6 µM (inactive) and 15.1 µM (inactive), respectively.

Turning to `Oc1c(-c2ccccc2)sc2ccccc12`, the GI50 was 60.7 µM (inactive) in [1]; 0.836 µM (active) in assay [2]; 18.7 µM (inactive) in assay [3]; 22.4 µM (inactive) in [4]; 43.9 µM (inactive) in assay [5]; 24.7 µM (inactive) in assay [6]. Besides, the GI50 was 31.9 µM (inactive) in [7]; 29.8 µM (inactive) in assay [8]; 25.2 µM (inactive) in assay [9]; 31.6 µM (inactive) in assay [10]; 7.55 µM (inactive) in [11]; 72.6 µM (inactive) in [12]. In addition, the GI50 was 20.2 µM (inactive) in assay [13]; 24.9 µM (inactive) in assay [14]; 19.5 µM (inactive) in assay [15]; 13 µM (inactive) in [16]; 27 µM (inactive) in [17]; 31.4 µM (inactive) in [18]. The GI50 in assay [19] is 19.1 µM (inactive); in assay [20], 21.9 µM (inactive).

On to `CCOC(=O)CCC(NC(=O)Cc1ccc(Oc2nc3ccccc3nc2-c2cccs2)cc1)C(=O)OCC` (stereo not given), for which the GI50 in assay [1] was 1.64 µM (inactive); in assay [2], 39.3 µM (inactive); in assay [3], 6.15 µM (inactive); in [4] it was 2.49 µM (inactive); in [5], 13.6 µM (inactive); in assay [6], > 100 µM (inactive). Further, the GI50 in assay [7] was 7.19 µM (inactive); in assay [8], > 100 µM (inactive); in assay [9] it was > 100 µM (inactive); in assay [10], 1.82 µM (inactive); in [11], 4.08 µM (inactive); in [12] it was 19.2 µM (inactive). Besides, the GI50 is > 100 µM (inactive) in [13]; 22.6 µM (inactive) in assay [14]; 40.9 µM (inactive) in assay [15]; > 100 µM (inactive) in assay [16]; 8.97 µM (inactive) in assay [17]; 19.4 µM (inactive) in assay [18]. Also, the GI50 in [19] was 34.4 µM (inactive); in assay [20], 14 µM (inactive).

Consider `COC(=O)[C@H](C)N(C)C(=O)[C@H](C)N1[C@@H](c2ccccc2)COC1(C)C`, for which the GI50 in assay [1], in [2], in assay [3], in assay [4], in assay [5] and in [6] was > 100 µM (inactive) each time. Moreover, the GI50 in assay [7], in assay [8], in assay [9], in assay [10], in [11] and in [12] was > 100 µM (inactive) throughout. The GI50 in [13], in assay [14], in assay [15], in assay [16], in assay [17] and in assay [18] was > 100 µM (inactive) throughout. Moreover, the GI50 in assay [19] and in assay [20] was > 100 µM (inactive) throughout.

As to `CCCCCCCCCC(=O)N[C@@H](c1ccco1)[C@@H](O)C(=O)O[C@H]1C[C@@]2(O)[C@@H](OC(=O)c3ccccc3)[C@@H]3[C@]4(OC(C)=O)CO[C@@H]4C[C@H](O)[C@@]3(C)C(=O)[C@H](OC(C)=O)C(=C1C)C2(C)C`, the GI50 in [1] is 0.158 µM (active); in assay [2], 2.85 µM (inactive); in assay [3] it was 0.00539 µM (active); in [4], 0.0282 µM (active); in assay [5] it was 0.00865 µM (active); in [6], 0.0124 µM (active). Further, the 50% growth inhibitory concentration (GI50) in assay [7] was 0.0318 µM (active); in assay [8], 0.0178 µM (active); in [9] it was 0.0374 µM (active); in [10], 0.0298 µM (active); in assay [11], 0.101 µM (active); in assay [12], 0.468 µM (active). In addition, the GI50 in assay [13] is 0.0308 µM (active); in assay [14], 1.66 µM (inactive); in [15], 0.0389 µM (active); in assay [16] it was < 0.005 µM (active); in assay [17], 0.0196 µM (active); in assay [18], 0.082 µM (active). Moreover, the 50% growth inhibitory concentration (GI50) in assay [19] was 0.0118 µM (active); in [20], 0.0296 µM (active).
